Reference: paper PMC10984466, “Structure-based identification of salicylic acid derivatives as malarial threonyl tRNA-synthetase inhibitors” (PLOS ONE, 2024)
Like-named read-outs stand apart in the source and are kept apart here.

Target: T1, PfThrRS (Plasmodium falciparum, UniProt Q8IIA4)
T1 construct: made in house; host or cells: E. coli BL21(DE3)
T1 sequence (Q8IIA4 21-1013): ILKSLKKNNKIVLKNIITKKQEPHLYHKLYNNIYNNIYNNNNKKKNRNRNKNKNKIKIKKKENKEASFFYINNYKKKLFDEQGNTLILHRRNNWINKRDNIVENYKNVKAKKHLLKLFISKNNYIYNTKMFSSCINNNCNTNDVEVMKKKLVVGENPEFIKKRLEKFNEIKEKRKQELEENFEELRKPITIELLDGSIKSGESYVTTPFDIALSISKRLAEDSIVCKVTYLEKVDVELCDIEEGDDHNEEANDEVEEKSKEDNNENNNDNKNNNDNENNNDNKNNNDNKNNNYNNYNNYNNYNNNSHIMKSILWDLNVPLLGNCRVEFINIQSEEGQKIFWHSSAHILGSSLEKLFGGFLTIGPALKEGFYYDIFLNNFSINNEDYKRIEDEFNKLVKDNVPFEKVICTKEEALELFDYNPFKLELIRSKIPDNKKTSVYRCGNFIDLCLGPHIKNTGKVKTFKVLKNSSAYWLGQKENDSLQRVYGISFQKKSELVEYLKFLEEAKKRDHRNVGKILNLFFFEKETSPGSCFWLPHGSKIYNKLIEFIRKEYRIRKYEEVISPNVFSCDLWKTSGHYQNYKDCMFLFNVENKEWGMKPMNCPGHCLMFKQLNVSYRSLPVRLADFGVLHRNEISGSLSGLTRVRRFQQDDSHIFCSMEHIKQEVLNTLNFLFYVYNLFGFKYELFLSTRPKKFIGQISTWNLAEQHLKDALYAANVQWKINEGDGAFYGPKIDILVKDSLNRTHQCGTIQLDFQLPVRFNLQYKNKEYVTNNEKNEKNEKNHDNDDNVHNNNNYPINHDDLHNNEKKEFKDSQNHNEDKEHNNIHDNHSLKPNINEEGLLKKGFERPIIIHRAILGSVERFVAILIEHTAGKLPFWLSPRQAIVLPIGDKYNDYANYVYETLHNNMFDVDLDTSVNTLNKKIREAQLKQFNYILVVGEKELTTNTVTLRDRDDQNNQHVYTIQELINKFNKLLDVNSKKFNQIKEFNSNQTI
Experiment: In vitro PfThrRS inhibition assay (aminoacylation activity, ATP consumption by Kinase-Glo luminescence)
Type: biochemical
Details: for LE (ligand efficiency): PfThrRS inhibitors, Fig 4 and text
Protocol: The bioassay protocol was adapted from the literature. The aminoacylation activity of PfThrRS in the presence of compounds was determined by measuring ATP consumption in the enzymatic reaction by using recombinant PfThrRS and P. falciparum cell extract as a source of t-RNA. ATP consumption was determined by Kinase-Glo® Reagent (Promega Inc.). The luminescence was read on a Tecan Infinite M1000 microplate reader. The inhibitory rate was measured in three independent assays. Borrelidin was obtained from commercial sources and used as a reference compound.

[1] = Table SI1, adenosine binding subsite substituent
[2] = Table SI1, adenosine binding subsite substituent, fraction of PfThrRS inhibited at 100 µM, read-out: ThrRS inhibition @100 µM, %
[3] = Table SI3, zinc ion binding group, fraction of PfThrRS inhibited at 100 µM, read-out: ThrRS inhibition @100 µM, %
[4] = Table SI2, arginine binding group, fraction of PfThrRS inhibited at 100 µM, read-out: ThrRS inhibition @100 µM, %

Row | SMILES | IC50 [1] [µM] | inhibition at 100 µM [2] [%] | other results
1 | O=C(O)c1cc(S(=O)(=O)Nc2ccccc2)ccc1O [7a, 2-Hydroxy-5-(N-phenylsulfamoyl)benzoic acid] | 13.1 ± 1.4 | 100 | LE (ligand efficiency) (listed as 7): 0.34
2 | COC(=O)c1cc(S(=O)(=O)Nc2ccccc2)ccc1O [7b, Methyl 2-hydroxy-5-(N-phenylsulfamoyl)benzoate] | – | – | inhibition at 100 µM [3]: 19 ± 8%
3 | O=C(NO)c1cc(S(=O)(=O)Nc2ccccc2)ccc1O [7c, N,2-dihydroxy-5-(N-phenylsulfamoyl)benzamide] | – | – | inhibition at 100 µM [3]: 16 ± 7%
4 | O=C(O)c1cc(S(=O)(=O)Nc2ccccc2)ccc1S [7d, 2-Mercapto-5-(N-phenylsulfamoyl)benzoic acid] | – | – | inhibition at 100 µM [3]: 16 ± 11%
5 | COc1ccc(S(=O)(=O)Nc2ccccc2)cc1C(=O)O [7e] | – | – | inhibition at 100 µM [3]: 11 ± 7%
6 | O=C(O)c1cccc(S(=O)(=O)Nc2ccccc2)c1 [7f] | – | – | inhibition at 100 µM [3]: 2 ± 4%
7 | O=C(O)c1cc(S(=O)(=O)Nc2ccccc2)ccc1F [7g] | – | – | inhibition at 100 µM [3]: 0%
8 | O=C(O)CC(O)(Cc1ccccc1)c1ccc(O)c(C(=O)O)c1 (stereo not drawn) [7h, 5-(1-Carboxy-2-hydroxy-3-phenylpropan-2-yl)-2-hydroxybenzoic acid] | – | – | inhibition at 100 µM [4]: 10 ± 8%
9 | O=C(O)c1cc(C(Nc2ccccc2)C(=O)O)ccc1O (stereo not drawn) [7i, 5-(Carboxy(phenylamino)methyl)-2-hydroxybenzoic acid] | – | – | inhibition at 100 µM [4]: 0%
10 | O=C(O)c1cc(S(=O)(=O)c2ccccc2)ccc1O [7j, 2-Hydroxy-5-(phenylsulfonyl)benzoic acid] | – | – | inhibition at 100 µM [4]: 11 ± 10%
11 | O=C(Nc1cccc(C(F)(F)F)c1)c1cccc(NS(=O)(=O)c2ccc(O)c(C(=O)O)c2)c1 [7k] | 31 ± 2 | 100 | –
12 | O=C(O)c1cc(S(=O)(=O)Nc2cc(Cl)ccc2Oc2ccccc2)ccc1O [7l] | 32 ± 2 | 100 | –
13 | CCCCc1ccc(NS(=O)(=O)c2ccc(O)c(C(=O)O)c2)cc1 [7m] | 31 ± 2 | 93 | –
14 | O=C(O)c1cc(S(=O)(=O)Nc2ccc(I)cc2)ccc1O [7n] | 46 ± 2 | 88 | –
15 | O=C(O)c1cc(S(=O)(=O)Nc2ccc(Br)cc2)ccc1O [7o] | 32 ± 2 | 84 | –
16 | COc1cccc(-c2cccc(NS(=O)(=O)c3ccc(O)c(C(=O)O)c3)c2)c1 [7p, 2-Hydroxy-5-(N-(3’-methoxy-[1,1’-biphenyl]-3-yl)sulfamoyl)benzoic acid] | 46 ± 3 | 80 ± 9 | –
17 | O=C(O)c1cc(S(=O)(=O)Nc2ccc(Cc3ccccc3)cc2)ccc1O [7q, 5-(N-(4-benzylphenyl)sulfamoyl)-2-hydroxybenzoic acid] | 55 ± 3 | 67 ± 11 | –

Row | SMILES | IC50 [1] [µM] | inhibition at 100 µM [2] [%] | other results
18 | O=C(O)c1cc(S(=O)(=O)Nc2cccc(Cl)c2)ccc1O [7r] | 76 ± 4 | 64 | –
19 | Cc1ccc(NS(=O)(=O)c2ccc(O)c(C(=O)O)c2)cc1 [7s] | 67 ± 3 | 63 | –
20 | O=C(O)c1cc(S(=O)(=O)Nc2ccc(Oc3ccccc3)cc2)ccc1O [7t, 2-Hydroxy-5-(N-(4-phenoxyphenyl)sulfamoyl)benzoic acid] | – | – | inhibition at 100 µM (100 μM compound, Figs 6, 8, 12, read-out: PfThrRS inhibition @100 μM, %): 58 ± 9%
21 | O=C(O)c1cc(S(=O)(=O)Nc2ccc3oc(=O)sc3c2)ccc1O [7u] | 89 ± 4 | 58 | –
22 | O=C(O)c1cc(S(=O)(=O)Nc2cccc3ccccc23)ccc1O [7v] | 84 ± 4 | 57 | –
23 | O=C(O)c1cc(S(=O)(=O)Nc2ccc(Cl)cc2)ccc1O [7w] | – | 31 ± 10 | –
24 | O=C(O)c1cc(S(=O)(=O)Nc2cccc(-c3ccccc3)c2)ccc1O [7x, 5-(N-([1,1’-biphenyl]-3-yl)sulfamoyl)-2-hydroxybenzoic acid] | – | 7 ± 1 | –
25 | O=C(O)c1cc(S(=O)(=O)Nc2ccc(Oc3ccccc3)cc2)ccc1O [LVV-455] | – | 35 ± 11 | –
26 | Cc1c(C(=O)O)nnn1-c1sc2c(c1C(=O)O)CCCC2 [compound 8] | – | – | LE (ligand efficiency): 0.33; IC50 (verified HTVS hits, Fig 4): 10.3 ± 1.2 µM
27 | O=C(O)CCS(=O)(=O)c1ccc2c(c1)OCCCO2 [compound 9] | – | – | LE (ligand efficiency): 0.30; IC50 (verified HTVS hits, Fig 4): 75 ± 5 µM
28 | O=C(c1ccn(-c2ccc(F)cc2)n1)N1CCC(O)(C(=O)O)C1 (stereo not drawn) [compound 10] | – | – | LE (ligand efficiency): 0.29; IC50 (verified HTVS hits, Fig 4): 19 ± 2 µM
29 | Cc1nc2cc(NC(=O)C3C4C=CC(C4)C3C(=O)O)ccc2o1 (stereo not drawn) [compound 11] | – | – | LE (ligand efficiency): 0.27; IC50 (verified HTVS hits, Fig 4): 39 ± 4 µM
30 | O=C(O)CCc1nc2c(O)nc(SCc3ccccc3F)[nH]c-2nc1=O [compound 12] | – | – | LE (ligand efficiency): 0.27; IC50 (verified HTVS hits, Fig 4): 12.1 ± 1.6 µM
31 | O=C(O)c1cc(C2CCN(C(=O)C[C@H]3CCCCO3)CC2)no1 [compound 13] | – | – | LE (ligand efficiency): 0.26; IC50 (verified HTVS hits, Fig 4): 65 ± 5 µM
32 | Cc1csc2ncc(C(=O)N[C@H]3Cc4ccc(C(=O)O)cc4C3)n12 [compound 14] | – | – | LE (ligand efficiency): 0.25; IC50 (verified HTVS hits, Fig 4): 49 ± 5 µM
33 | CCCCC[C@H](O)CC[C@@H]1[C@H]2Cc3cccc(OCC(=O)O)c3C[C@H]2C[C@H]1O [compound 15, Remodulin, reference compound] | – | – | LE (ligand efficiency): 0.25; IC50 (verified HTVS hits, Fig 4): 12.5 ± 1.5 µM
